Assay [1] concerns B. gingivalis. Kind of assay: Hydrolytic activity of cell suspension, substrates alone or in combination (Experiment 3). The assay is classed as cell-based. The following applies: five strains, Table 3. The protocol:
(§1) The strains of Treponema were anaerobically cultivated using TYGVS media at 37° C. for 7 days, while other bacterial strains were cultivated using brain heart infusion broth at 37° C. for 48 to 72 hours. Each culture was diluted to obtain a bacterial cell suspension, the absorption at 660 nm of which was 1.0.
(§2) Substrate compounds for aminopeptidase enzyme having various color developing groups derived from β-naphthylamine were dissolved in 0.1M Tris-HCl buffer (pH 7.0) at the concentration of 0.2 mM to obtain substrate solutions.
(§3) To the substrate solution (1.5 ml) was added the above cell suspension (0.3 ml) and reacted at 37° C. for 60 minutes. After completion of the reaction, a coloring reagent [prepared by dissolving diazonium salt of Garnet GBC in 1M acetate buffer (containing 10% Tween 20, pH: 4.2) at the concentration of 0.5 mg/ml] was added and, after 15 minutes, the absorption at 525 nm was determined with a spectrophotometer.
(§4) On the basis of the average amount of released β-naphthylamine in each strain, the hydrolytic activity was expressed as follows: […]
(§5) According to the same manner as described in Experiment 1, periodontopathic bacteria specific aminopeptidase activity was tested by using four strains of Treponema denticola, five strains of B. gingivalis, four strains of Actinobacillus actinomycetemcomitans, two strains of Actinomyces israelli and three strains of Fusobacterium nucleatum. Abbreviations in Table 3 are the same as those in Tables 1 and 2. Hydrolytic activity "+++" means "40≤release amount<80 nmol/ml" and "++++" means "release amount≥80 nmol/ml".

Assay [2] concerns Fusobacterium nucleatum. Described as above. The assay is classed as cell-based. The following applies: three strains, Table 3. Here is the method: as §1, §2, §3, §4, §5
Assay [3] deals with Actinobacillus actinomycetemcomitans. Described as above. The assay is classed as cell-based. The following applies: four strains, Table 3. The protocol: as §1, §2, §3, §4, §5
Assay [4] has as its system Actinomyces israelli. The description is as above. Format: cell-based. The following applies: two strains, Table 3. The protocol:
as §1, §2, §3, §4, §5

For assay [5], the system named is Treponema denticola. Described as above. The assay is classed as cell-based. The following applies: four strains, Table 3. The protocol: as §1, §2, §3, §4, §5
Assay [6] concerns periodontopathic bacteria specific aminopeptidase activity. Kind of assay: Hydrolytic activity of gingival crevicular fluid specimens, OD525 (Experiment 6). Format: biochemical. Here is the method: as §2, §3
Specimens of gingival crevicular fluid were collected with paper points from five subjects who were considered to be healthy from their clinical state, six subjects with gingivitis and six subjects with periodontitis. Each specimen was dispersed in Ringer's solution (1.5 ml), and the relative amount of spirochete to total bacteria: [formula] was determined with a phase contrast microscope. Further, the Ringer's solution (0.3 ml) was tested for hydrolytic activity using the substrate solution prepared in the same manner as described in Experiment 1. As substrates, there were used compounds of the formula [1], i.e., N-benzoylvalyl-glycyl-arginine-β-naphthylamide (BzVGR) and N-carbobenzoxy-valyl-glycyl-arginine-β-naphthylamide (CxVGR) were used.
According to the same manner as described in Experiment 4, hydrolytic activity was tested by using the compounds of the formulas and [2], i.e., glycyl-proline-βnaphthylamide (GP), N-benzoyl-arginyl-glycyl-phenylalanylproline-β-naphthylamide (BzRGFP), N-carbobenzoxy-valylglycyl-arginine-β-naphthylamide (CxVGR) and N-benzoylglycyl-arginine-β-naphthylamide (BzGR) alone or in combination. Hydrolytic activity was determined by measuring absorption at 525 nm (OD525) and expressed as follows.

Assay [7] concerns Fusobacterium nucleatum. Nature of the assay: Hydrolytic activity of oral anaerobe cell suspension on aminopeptidase substrates (Experiment 1). The following applies: three strains, substrate 0.2 mM, pH 7.0, 37° C., 60 minutes, Table 1. Format: cell-based. The procedure, abridged:
(§6)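 Treponema grown anaerobically in TYGVS (37 °C, 7 days) and other strains in brain heart infusion (37 °C, 48–72 h), then diluted to A660 1.0. Cells reacted 60 min at 37 °C with β-naphthylamine-derived substrates (0.2 mM solution, 0.1 M Tris-HCl pH 7.0). Garnet GBC coupling, A525 after 15 min; activity graded from mean released β-naphthylamine per strain.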

For assay [8], the system named is Actinobacillus actinomycetemcomitans. The assay is described as above. The assay is classed as cell-based. The following applies: four strains, substrate 0.2 mM, pH 7.0, 37° C., 60 minutes, Table 1. A digest of the protocol: as §6
A further assay concerns Capnocytophaga sp. The assay is described as above. Format: cell-based. The following applies: four strains, substrate 0.2 mM, pH 7.0, 37° C., 60 minutes, Table 1. The procedure, abridged: as §6
Another assay relates to Bacteroides gingivalis. The description is as above. Format: cell-based. The following applies: five strains, substrate 0.2 mM, pH 7.0, 37° C., 60 minutes, Table 1. A digest of the protocol: as §6
In assay [9] the test system is Treponema denticola. The description is as above. The assay is classed as cell-based. The following applies: four strains, substrate 0.2 mM, pH 7.0, 37° C., 60 minutes, Table 1. The procedure, abridged:
as §6

In the next assay the test system is B. denticola. Nature of the assay: Hydrolytic activity of cell suspension on aminopeptidase substrates (Experiment 2). Format: cell-based. The following applies: Table 2. A digest of the protocol: (§7)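 Cell suspensions (A660 = 1.0; Treponema grown 7 days in TYGVS, others 48–72 h in BHI, 37 °C) were incubated with 0.2 mM β-naphthylamide substrates in 0.1 M Tris-HCl pH 7.0 for 60 min at 37 °C. Released β-naphthylamine detected with Garnet GBC at 525 nm and scored from strain averages.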

In the next assay the test system is B. melaninogenicus. The assay is described as above. Format: cell-based. The following applies: two strains, Table 2. A digest of the protocol:
as §7

In assay [10] the test system is B. gingivalis. The description is as above. The assay is classed as cell-based. The following applies: five strains, Table 2. The procedure, abridged:
as §7

Assay [11] has as its system Fusobacterium nucleatum. The description is as above. The assay is classed as cell-based. The following applies: three strains, Table 2. A digest of the protocol:
as §7

For assay [12], the system named is Actinobacillus actinomycetemcomitans. Described as above. The assay is classed as cell-based. The following applies: four strains, Table 2. The procedure, abridged: as §7
The next assay has as its system B. corporis. Described as above. Format: cell-based. The following applies: Table 2. The procedure, abridged: as §7
The test system of assay [13] is Actinomyces israelli. The assay is described as above. The following applies: two strains, Table 2. Format: cell-based. A digest of the protocol: as §7
A further assay has as its system B. intermedius. Described as above. The assay is classed as cell-based. The following applies: three strains, Table 2. A digest of the protocol: as §7
The test system of assay [14] is Treponema denticola. The description is as above. The following applies: four strains, Table 2. The assay is classed as cell-based. A digest of the protocol: as §7
Setting [15] is: Gingivitis subject 1 (spirochete 7.3 %).
[16] abbreviates: Gingivitis subject 2 (spirochete 16.7 %).
[17] abbreviates: Gingivitis subject 3 (spirochete 20.5 %).
The mark [18] stands for this setting: Gingivitis subject 4 (spirochete 6.8 %).
[19] abbreviates: Gingivitis subject 5 (spirochete 7.3 %).
[20] abbreviates: Healthy subject 1 (spirochete 0.1 %).
Where [21] appears, read: Healthy subject 3 (spirochete 1.1 %).
Where [22] appears, read: Healthy subject 4 (spirochete 0.6 %).
Setting [23] is: Healthy subject 5 (spirochete 1.3 %).
The mark [24] stands for this setting: Periodontitis subject 1 (spirochete 45.2 %).
[25] abbreviates: Periodontitis subject 2 (spirochete 30.3 %).
The mark [26] stands for this setting: Periodontitis subject 3 (spirochete 34.6 %).
Where [27] appears, read: Periodontitis subject 4 (spirochete 21.2 %).
The mark [28] stands for this setting: Periodontitis subject 5 (spirochete 40.3 %).
The mark [29] stands for this setting: Periodontitis subject 6 (spirochete 35.1 %).

Where a SMILES comes first, the peptide text is derived from it. The star is where a group is joined. βNA = c1ccc2cc(N*)ccc2c1; Cbz = O=C(OCc1ccccc1)*; Bz = O=C(c1ccccc1)*

`N=C(N)NCCC[C@H](NC(=O)CNC(=O)c1ccccc1)C(=O)Nc1ccc2ccccc2c1` [BzGR, N-benzoyl-glycyl-arginine-β-naphthylamide] (Bz-Gly-Arg-βNA): the “hydrolytic activity (release amount)” value was “+++ (40≤release amount<80 nmol/ml)” in the assay on B. gingivalis [1]; “- (release amount<5 nmol/ml)” with Fusobacterium nucleatum [2]; “- (release amount<5 nmol/ml)” in assay [3]; “- (release amount<5 nmol/ml)” in the assay with Actinomyces israelli [4]; “++ (20 ≤release amount<40 nmol/ml)” in the assay with Treponema denticola [5]. The “hydrolytic activity, absorption at 525 nm (OD525)” value (“hydrolytic activity, absorption” below) is reported as “+ (0.1≤OD525 <0.2)” in [6] (setting [15]); “+ (0.1≤OD525 <0.2)” in [6] (setting [16]); “++ (0.2≤OD525 <0.4)” in assay [6] (setting [17]); “- (OD525 <0.1)” in assay [6] (setting [18]); “- (OD525 <0.1)” in assay [6] (setting [19]); “- (OD525 <0.1)” in assay [6] (setting [20]). In addition, the “hydrolytic activity, absorption” value in [6] (setting [21]) is listed as “- (OD525 <0.1)”; in [6] (setting [22]), “- (OD525 <0.1)”; in [6] (setting [23]), “- (OD525 <0.1)”; in [6] (setting [24]) it was “++ (0.2≤OD525 <0.4)”; in [6] (setting [25]), “++ (0.2≤OD525 <0.4)”; in [6] (setting [26]) it was “++ (0.2≤OD525 <0.4)”. Moreover, the “hydrolytic activity, absorption” value in assay [6] (setting [27]), in assay [6] (setting [28]) and in assay [6] (setting [29]) was “++ (0.2≤OD525 <0.4)” in each case. Moreover, the “hydrolytic activity (average amount of released β-naphthylamine)” value is given as “- (release amount<5 nmol/ml)” in the assay on Fusobacterium nucleatum [7]; “- (release amount<5 nmol/ml)” in [8]; “- (release amount<5 nmol/ml)” with Capnocytophaga sp.; “+++ (release amount≥40 nmol/ml)” with Bacteroides gingivalis; “++ (20 ≤release amount<40 nmol/ml)” with Treponema denticola [9].
With `NCCCC[C@H](NC(=O)OCc1ccccc1)C(=O)N1CCC[C@H]1C(=O)Nc1ccc2ccccc2c1` [CxKP, N-carbobenzoxy-lysyl-proline-β-naphthylamide] (Cbz-Lys-Pro-βNA), the “hydrolytic activity (average amount of released β-naphthylamine)” value in the assay with B. denticola was “++ (20 ≤release amount<40 nmol/ml)”; in the assay with B. melaninogenicus, “++ (20 ≤release amount<40 nmol/ml)”; in the assay on B. gingivalis [10], “++ (20 ≤release amount<40 nmol/ml)”; in the assay on Fusobacterium nucleatum [11], “- (release amount<5 nmol/ml)”; in [12] it was “- (release amount<5 nmol/ml)”; in the assay on B. corporis it was “++ (20 ≤release amount<40 nmol/ml)”. Moreover, the results for the “hydrolytic activity (average amount of released β-naphthylamine)” value with Actinomyces israelli [13], in the assay on B. intermedius and in the assay with Treponema denticola [14] were “- (release amount<5 nmol/ml)”, “++ (20 ≤release amount<40 nmol/ml)” and “+ (10 ≤release amount<20 nmol/ml)”, respectively. Also, the “hydrolytic activity (release amount)” value in the assay with B. gingivalis [1] was “++ (20 ≤release amount<40 nmol/ml)”; with Fusobacterium nucleatum [2], “- (release amount<5 nmol/ml)”; in assay [3], “- (release amount<5 nmol/ml)”; in the assay with Actinomyces israelli [4], “- (release amount<5 nmol/ml)”; in the assay with Treponema denticola [5], “+ (10 ≤release amount<20 nmol/ml)”.
For the molecule `NCC(=O)N1CCC[C@H]1C(=O)Nc1ccc2ccccc2c1` [GP, glycyl-proline-β-naphthylamide] (H-Gly-Pro-βNA), the “hydrolytic activity (average amount of released β-naphthylamine)” value was “- (release amount<5 nmol/ml)” in the assay on B. denticola; “++ (20 ≤release amount<40 nmol/ml)” with B. melaninogenicus; “+++ (release amount≥40 nmol/ml)” in the assay with B. gingivalis [10]; “- (release amount<5 nmol/ml)” with Fusobacterium nucleatum [11]; “- (release amount<5 nmol/ml)” in assay [12]; “++ (20 ≤release amount<40 nmol/ml)” in the assay with B. corporis. The figures for the “hydrolytic activity (average amount of released β-naphthylamine)” value in the assay with Actinomyces israelli [13], in the assay with B. intermedius and with Treponema denticola [14] were “- (release amount<5 nmol/ml)”, “+ (10 ≤release amount<20 nmol/ml)” and “++ (20 ≤release amount<40 nmol/ml)”, respectively. Further, the “hydrolytic activity (release amount)” value in the assay with B. gingivalis [1] is given as “+++ (40≤release amount<80 nmol/ml)”; in the assay on Fusobacterium nucleatum [2], “- (release amount<5 nmol/ml)”; in assay [3], “- (release amount<5 nmol/ml)”; in the assay on Actinomyces israelli [4], “- (release amount<5 nmol/ml)”; with Treponema denticola [5], “++ (20 ≤release amount<40 nmol/ml)”. The “hydrolytic activity, absorption” value in assay [6] (setting [15]) is “+ (0.1≤OD525 <0.2)”; in assay [6] (setting [16]), “+ (0.1≤OD525 <0.2)”; in [6] (setting [17]), “++ (0.2≤OD525 <0.4)”; in assay [6] (setting [18]), “- (OD525 <0.1)”; in assay [6] (setting [19]), “- (OD525 <0.1)”; in assay [6] (Gingivitis subject 6 (spirochete 14.4 %)), “+ (0.1≤OD525 <0.2)”. Besides, the “hydrolytic activity, absorption” value in [6] (setting [20]) is reported as “- (OD525 <0.1)”; in assay [6] (setting [21]) it was “- (OD525 <0.1)”; in assay [6] (setting [22]), “- (OD525 <0.1)”; in assay [6] (setting [23]), “- (OD525 <0.1)”; in [6] (setting [24]) it was “+++ (0.4≤OD525 <0.8)”; in assay [6] (setting [25]) it was “+++ (0.4≤OD525 <0.8)”. The “hydrolytic activity, absorption” value in assay [6] (setting [26]) is recorded as “+++ (0.4≤OD525 <0.8)”; in assay [6] (setting [27]), “++ (0.2≤OD525 <0.4)”; in assay [6] (setting [28]), “+++ (0.4≤OD525 <0.8)”; in assay [6] (setting [29]) it was “+++ (0.4≤OD525 <0.8)”.
